Source: article PMC6409085, “Three odorant-binding proteins are involved in the behavioral response of Sogatella furcifera to rice plant volatiles” (PeerJ, 2019)
pIC50: −log10 of the molar value. Where “and” joins values, the source holds several entries; their conditions need not be identical. Identical values can stand only once.

How the values were obtained:
S. furcifera adults = test: Y-tube olfactometer behavioral trials; assay type: in vivo, Sogatella furcifera; conditions: odorant 50 µL/L vs hexane; adults
Summary of the method: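 Single S. furcifera adults (2 days post-emergence, starved 0.5 h) chose between odorant (100 µL of 50 µL/L on filter paper) and hexane control in a glass Y-tube, charcoal-filtered humidified air 300 mL/min per arm, 25 ± 1 °C, 50% RH. Choice scored if insect passed half an arm and stayed >1 min within 10 min; 45 insects per compound, chi-squared test.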

SfurOBP3 = SfurOBP3 (Sogatella furcifera, UniProt V5T818); test: biochemical; assay type: binding; conditions: for Fluorescence competitive binding assay, fluorescence intensity: OBP3, three replicate columns;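 as to Fluorescence competitive binding assay, fluorescence intensity: competitor odorant at 2 to 20 µM with protein and 1-NPN both 2.0 µM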
Summary of the method: (§1)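 In 50 mM Tris-HCl pH 7.4, odorants displace 1-NPN (2.0 µM) from 2.0 µM protein. Emission at 390–490 nm under 337 nm excitation is measured 2 min after competitor addition, in triplicate. Ki is obtained from IC50 and the 1-NPN dissociation constant.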

SfurOBP1 = SfurOBP1 (Sogatella furcifera, UniProt V5T8N5); test: biochemical; assay type: binding; conditions: for Fluorescence competitive binding assay, fluorescence intensity: OBP1, three replicate columns
Summary of the method: as §1

SfurOBP11 = SfurOBP11 (Sogatella furcifera, UniProt V5T6E3); test: biochemical; assay type: binding
Summary of the method: as §1

SfurOBP2 = SfurOBP2 (Sogatella furcifera, UniProt V5T759); test: biochemical; assay type: binding
Summary of the method: as §1
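For Fluorescence competitive binding assay, fluorescence intensity in this document: competitor odorant at 2 to 20 µM with protein and 1-NPN both 2.0 µM.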

Chain of SfurOBP3 (V5T818 entry or part of it): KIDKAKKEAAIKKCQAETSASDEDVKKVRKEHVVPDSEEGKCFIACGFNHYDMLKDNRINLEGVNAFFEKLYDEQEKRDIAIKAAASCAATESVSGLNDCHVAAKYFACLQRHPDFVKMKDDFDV
Chain of SfurOBP1 (V5T8N5 entry or part of it): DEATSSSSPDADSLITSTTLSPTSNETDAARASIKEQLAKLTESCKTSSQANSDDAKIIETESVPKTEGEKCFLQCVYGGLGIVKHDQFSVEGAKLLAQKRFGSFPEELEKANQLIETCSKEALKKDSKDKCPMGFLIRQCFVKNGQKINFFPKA
Chain of SfurOBP11 (V5T6E3 entry or part of it): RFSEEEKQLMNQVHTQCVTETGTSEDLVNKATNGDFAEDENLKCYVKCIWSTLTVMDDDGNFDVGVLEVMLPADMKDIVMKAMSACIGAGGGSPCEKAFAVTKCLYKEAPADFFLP
Chain of SfurOBP2 (V5T759 entry or part of it): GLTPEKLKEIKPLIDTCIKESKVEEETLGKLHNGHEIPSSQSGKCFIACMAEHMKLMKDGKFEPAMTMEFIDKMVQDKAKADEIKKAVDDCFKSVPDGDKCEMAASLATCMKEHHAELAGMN

OC1CCCCC1 [cyclohexanol]
number of insects choosing hexane arm (S. furcifera adults): 12 | number of insects choosing volatilies arm (S. furcifera adults): 7 | number of insects failed (no choice) (S. furcifera adults): 21 | pIC50 (SfurOBP3): < 4.70 | Fluorescence competitive binding assay, fluorescence intensity (SfurOBP3; ligand concentration 2): 73467 and 78493 and 77746 | Fluorescence competitive binding assay, fluorescence intensity (SfurOBP3; ligand concentration 4): 78452 and 70026 and 82856 | Fluorescence competitive binding assay, fluorescence intensity (SfurOBP3; ligand concentration 6): 79407 and 77940 and 78195 | Fluorescence competitive binding assay, fluorescence intensity (SfurOBP3; ligand concentration 8): 71546 and 83168 and 84706 | Fluorescence competitive binding assay, fluorescence intensity (SfurOBP3; ligand concentration 10): 73852 and 75338 and 78193 | Fluorescence competitive binding assay, fluorescence intensity (SfurOBP3; ligand concentration 12): 65457 and 72548 and 71432 | Fluorescence competitive binding assay, fluorescence intensity (SfurOBP3; ligand concentration 14): 60072 and 60001 and 71583 | Fluorescence competitive binding assay, fluorescence intensity (SfurOBP3; ligand concentration 16): 61622 and 57596 and 60550 | Fluorescence competitive binding assay, fluorescence intensity (SfurOBP3; ligand concentration 18): 75606 and 79879 and 73633 | Fluorescence competitive binding assay, fluorescence intensity (SfurOBP3; ligand concentration 20): 63397 and 61447 and 55682 | pIC50 (SfurOBP1): < 4.70 | Fluorescence competitive binding assay, fluorescence intensity (SfurOBP1; ligand concentration 2 (μM)): 5844 and 5673 and 6371 | Fluorescence competitive binding assay, fluorescence intensity (SfurOBP1; ligand concentration 4 (μM)): 9311 and 8690 and 9932 | Fluorescence competitive binding assay, fluorescence intensity (SfurOBP1; ligand concentration 6 (μM)): 6443 and 7058 and 7039 | Fluorescence competitive binding assay, fluorescence intensity (SfurOBP1; ligand concentration 8 (μM)): 6837 and 7313 and 7729 | Fluorescence competitive binding assay, fluorescence intensity (SfurOBP1; ligand concentration 10 (μM)): 8238 and 7697 and 7236 | Fluorescence competitive binding assay, fluorescence intensity (SfurOBP1; ligand concentration 12 (μM)): 6489 and 6472 and 7355 | Fluorescence competitive binding assay, fluorescence intensity (SfurOBP1; ligand concentration 14 (μM)): 7069 and 6354 and 7092 | Fluorescence competitive binding assay, fluorescence intensity (SfurOBP1; ligand concentration 16 (μM)): 6030 and 6324 and 7260 | Fluorescence competitive binding assay, fluorescence intensity (SfurOBP1; ligand concentration 18 (μM)): 9356 and 7906 and 7474 | Fluorescence competitive binding assay, fluorescence intensity (SfurOBP1; ligand concentration 20 (μM)): 8046 and 8689 and 8368 | pIC50 (SfurOBP11): < 4.70 | Fluorescence intensity, fluorescence competitive binding assay, OBP11 (SfurOBP11; ligand concentration 2, replicate 1): 24375 | Fluorescence intensity, fluorescence competitive binding assay, OBP11 (SfurOBP11; ligand concentration 2, replicate 2): 24650 | Fluorescence intensity, fluorescence competitive binding assay, OBP11 (SfurOBP11; ligand concentration 2, replicate 3): 24939 | Fluorescence intensity, fluorescence competitive binding assay, OBP11 (SfurOBP11; ligand concentration 4, replicate 1): 24494 | Fluorescence intensity, fluorescence competitive binding assay, OBP11 (SfurOBP11; ligand concentration 4, replicate 2): 24823 | Fluorescence intensity, fluorescence competitive binding assay, OBP11 (SfurOBP11; ligand concentration 4, replicate 3): 24654 | Fluorescence intensity, fluorescence competitive binding assay, OBP11 (SfurOBP11; ligand concentration 6, replicate 1): 24316 | Fluorescence intensity, fluorescence competitive binding assay, OBP11 (SfurOBP11; ligand concentration 6, replicate 2): 24699 | Fluorescence intensity, fluorescence competitive binding assay, OBP11 (SfurOBP11; ligand concentration 6, replicate 3): 24500 | Fluorescence intensity, fluorescence competitive binding assay, OBP11 (SfurOBP11; ligand concentration 8, replicate 1): 24760 | Fluorescence intensity, fluorescence competitive binding assay, OBP11 (SfurOBP11; ligand concentration 8, replicate 2): 24220 | Fluorescence intensity, fluorescence competitive binding assay, OBP11 (SfurOBP11; ligand concentration 8, replicate 3): 24499 | Fluorescence intensity, fluorescence competitive binding assay, OBP11 (SfurOBP11; ligand concentration 10, replicate 1): 22885 | Fluorescence intensity, fluorescence competitive binding assay, OBP11 (SfurOBP11; ligand concentration 10, replicate 2): 23988 | Fluorescence intensity, fluorescence competitive binding assay, OBP11 (SfurOBP11; ligand concentration 10, replicate 3): 24498 | Fluorescence intensity, fluorescence competitive binding assay, OBP11 (SfurOBP11; ligand concentration 12, replicate 1): 23691 | Fluorescence intensity, fluorescence competitive binding assay, OBP11 (SfurOBP11; ligand concentration 12, replicate 2): 23225 | Fluorescence intensity, fluorescence competitive binding assay, OBP11 (SfurOBP11; ligand concentration 12, replicate 3): 24428 | Fluorescence intensity, fluorescence competitive binding assay, OBP11 (SfurOBP11; ligand concentration 14, replicate 1): 22556 | Fluorescence intensity, fluorescence competitive binding assay, OBP11 (SfurOBP11; ligand concentration 14, replicate 2): 23123 | Fluorescence intensity, fluorescence competitive binding assay, OBP11 (SfurOBP11; ligand concentration 14, replicate 3): 22199 | Fluorescence intensity, fluorescence competitive binding assay, OBP11 (SfurOBP11; ligand concentration 16, replicate 1): 21391 | Fluorescence intensity, fluorescence competitive binding assay, OBP11 (SfurOBP11; ligand concentration 16, replicate 2): 22093 | Fluorescence intensity, fluorescence competitive binding assay, OBP11 (SfurOBP11; ligand concentration 16, replicate 3): 21606 | Fluorescence intensity, fluorescence competitive binding assay, OBP11 (SfurOBP11; ligand concentration 18, replicate 1): 23329 | Fluorescence intensity, fluorescence competitive binding assay, OBP11 (SfurOBP11; ligand concentration 18, replicate 2): 23356 | Fluorescence intensity, fluorescence competitive binding assay, OBP11 (SfurOBP11; ligand concentration 18, replicate 3): 23748 | Fluorescence intensity, fluorescence competitive binding assay, OBP11 (SfurOBP11; ligand concentration 20, replicate 1): 23863 | Fluorescence intensity, fluorescence competitive binding assay, OBP11 (SfurOBP11; ligand concentration 20, replicate 2): 23927 | Fluorescence intensity, fluorescence competitive binding assay, OBP11 (SfurOBP11; ligand concentration 20, replicate 3): 23769 | pIC50 (SfurOBP2): < 4.70 | Fluorescence competitive binding assay, OBP2 (raw fluorescence reading) (SfurOBP2; ligand concentration 2 (unit not given), replicate column 1 of 3): 20258 | Fluorescence competitive binding assay, OBP2 (raw fluorescence reading) (SfurOBP2; ligand concentration 2 (unit not given), replicate column 2 of 3): 18511 | Fluorescence competitive binding assay, OBP2 (raw fluorescence reading) (SfurOBP2; ligand concentration 2 (unit not given), replicate column 3 of 3): 18768 | Fluorescence competitive binding assay, OBP2 (raw fluorescence reading) (SfurOBP2; ligand concentration 4 (unit not given), replicate column 1 of 3): 17006 | Fluorescence competitive binding assay, OBP2 (raw fluorescence reading) (SfurOBP2; ligand concentration 4 (unit not given), replicate column 2 of 3): 17312 | Fluorescence competitive binding assay, OBP2 (raw fluorescence reading) (SfurOBP2; ligand concentration 4 (unit not given), replicate column 3 of 3): 19296 | Fluorescence competitive binding assay, OBP2 (raw fluorescence reading) (SfurOBP2; ligand concentration 6 (unit not given), replicate column 1 of 3): 17760 | Fluorescence competitive binding assay, OBP2 (raw fluorescence reading) (SfurOBP2; ligand concentration 6 (unit not given), replicate column 2 of 3): 19185 | Fluorescence competitive binding assay, OBP2 (raw fluorescence reading) (SfurOBP2; ligand concentration 6 (unit not given), replicate column 3 of 3): 18943 | Fluorescence competitive binding assay, OBP2 (raw fluorescence reading) (SfurOBP2; ligand concentration 8 (unit not given), replicate column 1 of 3): 16983 | Fluorescence competitive binding assay, OBP2 (raw fluorescence reading) (SfurOBP2; ligand concentration 8 (unit not given), replicate column 2 of 3): 16921 | Fluorescence competitive binding assay, OBP2 (raw fluorescence reading) (SfurOBP2; ligand concentration 8 (unit not given), replicate column 3 of 3): 18381 | Fluorescence competitive binding assay, OBP2 (raw fluorescence reading) (SfurOBP2; ligand concentration 10 (unit not given), replicate column 1 of 3): 16551 | Fluorescence competitive binding assay, OBP2 (raw fluorescence reading) (SfurOBP2; ligand concentration 10 (unit not given), replicate column 2 of 3): 16106 | Fluorescence competitive binding assay, OBP2 (raw fluorescence reading) (SfurOBP2; ligand concentration 10 (unit not given), replicate column 3 of 3): 17116 | Fluorescence competitive binding assay, OBP2 (raw fluorescence reading) (SfurOBP2; ligand concentration 12 (unit not given), replicate column 1 of 3): 12653 | Fluorescence competitive binding assay, OBP2 (raw fluorescence reading) (SfurOBP2; ligand concentration 12 (unit not given), replicate column 2 of 3): 16542 | Fluorescence competitive binding assay, OBP2 (raw fluorescence reading) (SfurOBP2; ligand concentration 12 (unit not given), replicate column 3 of 3): 15003 | Fluorescence competitive binding assay, OBP2 (raw fluorescence reading) (SfurOBP2; ligand concentration 14 (unit not given), replicate column 1 of 3): 14815 | Fluorescence competitive binding assay, OBP2 (raw fluorescence reading) (SfurOBP2; ligand concentration 14 (unit not given), replicate column 2 of 3): 15068 | Fluorescence competitive binding assay, OBP2 (raw fluorescence reading) (SfurOBP2; ligand concentration 14 (unit not given), replicate column 3 of 3): 14859 | Fluorescence competitive binding assay, OBP2 (raw fluorescence reading) (SfurOBP2; ligand concentration 16 (unit not given), replicate column 1 of 3): 15306 | Fluorescence competitive binding assay, OBP2 (raw fluorescence reading) (SfurOBP2; ligand concentration 16 (unit not given), replicate column 2 of 3): 13071 | Fluorescence competitive binding assay, OBP2 (raw fluorescence reading) (SfurOBP2; ligand concentration 16 (unit not given), replicate column 3 of 3): 13046 | Fluorescence competitive binding assay, OBP2 (raw fluorescence reading) (SfurOBP2; ligand concentration 18 (unit not given), replicate column 1 of 3): 15697 | Fluorescence competitive binding assay, OBP2 (raw fluorescence reading) (SfurOBP2; ligand concentration 18 (unit not given), replicate column 2 of 3): 16234 | Fluorescence competitive binding assay, OBP2 (raw fluorescence reading) (SfurOBP2; ligand concentration 18 (unit not given), replicate column 3 of 3): 16085 | Fluorescence competitive binding assay, OBP2 (raw fluorescence reading) (SfurOBP2; ligand concentration 20 (unit not given), replicate column 1 of 3): 15959 | Fluorescence competitive binding assay, OBP2 (raw fluorescence reading) (SfurOBP2; ligand concentration 20 (unit not given), replicate column 2 of 3): 14904 | Fluorescence competitive binding assay, OBP2 (raw fluorescence reading) (SfurOBP2; ligand concentration 20 (unit not given), replicate column 3 of 3): 13122
